Results from patent publication US11807634B2, “Cyclopropyl dihydroquinoline sulfonamide compounds” (AMGEN INC., priority 2020, dated 2023).

The molecules below were run on CYP3A4 (assay: Human CYP 3A4 induction assay (mRNA, cryopreserved human hepatocytes)). Conditions: human hepatocytes, 10 uM test compound, 72 hours, mRNA, percent of control (rifampin positive control).
Format: in vitro ADME
Protocol: Human CYP 3A4 Induction Assay
Cryopreserved human hepatocytes were seeded in 96-well collagen coated plates at 70,000 cells per well in hepatocyte plating media (HPM, final concentrations: 1× Dulbecco's Modified Eagle's Medium, 0.1 μM dexamethasone, 10% fetal bovine serum, 1× ITS, 1×PSG) followed by incubation at 37° C. under 5% CO2 and 90% relative humidity for 2 days to allow hepatocytes to form a confluent layer. On Day 3, hepatocytes were treated with either test compound or rifampin (20 μM, positive control for CYP3A induction) prepared in hepatocyte incubation media ((HIM, final concentrations: 1× William's Medium E, 0.1 μM dexamethasone, 1×ITS, 1×PSG). Treatment was performed for 72 hours with either 2 concentrations (2 μM or 10 μM) or a range of concentrations (0.001 μM to 100 μM) of the test compound to obtain full dose-response curve. Fresh media containing the relevant concentrations of the test compound was replaced every day until the samples were processed. After 72 hours of incubation, samples were processed for mRNA analysis using bDNA technology using manufacturer's instructions (Affymetrix, Fremont, Calif.). Cell viability was tested at the end of the experiment using MTT assay kit (Roche Diagnostics, Basel, Switzerland). Data was analyzed and presented as percent of control (POC) and Emax and EC50 obtained when appropriate according to guidance from Center for Drug Evaluation and Research (CDER), 2006, Guidance for Industry, Drug Interaction Studies—Study Design, Data Analysis, and Implications for Dosing and Labeling.
Cryopreserved human hepatocytes were seeded in 96-well collagen coated plates at 70,000 cells per well in hepatocyte plating media (HPM, final concentrations: 1× Dulbecco's Modified Eagle's Medium, 0.1 μM dexamethasone, 10% fetal bovine serum, 1×ITS, 1×PSG) followed by incubation at 37° C. under 5% CO2 and 90% relative humidity for 2 days to allow hepatocytes to form a confluent layer. On Day 3, hepatocytes were treated with either test compound or rifampin (20 μM, positive control for CYP3A induction) prepared in hepatocyte incubation media ((HIM, final concentrations: 1× William's Medium E, 0.1 μM dexamethasone, 1×ITS, 1×PSG). Treatment was performed for 72 hours with either 2 concentrations (2 μM or 10 μM) or a range of concentrations (0.001 μM to 100 μM) of the test compound to obtain full dose-response curve. Fresh media containing the relevant concentrations of the test compound was replaced every day until the samples were processed. After 72 hours of incubation, samples were processed for mRNA analysis using bDNA technology using manufacturer's instructions (Affymetrix, Fremont, Calif.). Cell viability was tested at the end of the experiment using MTT assay kit (Roche Diagnostics, Basel, Switzerland). Data was analyzed and presented as percent of control (POC) and Emax and EC50 obtained when appropriate, as described in Halladay, J. et al, 2012, An “all-inclusive” 96-well cytochrome P450 induction method: Measuring enzyme activity, mRNA levels, protein levels, and cytotoxicity from one well using cryopreserved human hepatocytes, Pharmacological and Toxicological Methods, 66:270-275.
The cytochrome P450 (CYP) is a well-known superfamily of enzymes that are responsible for the oxidative and reductive metabolic transformation of medications used in clinical practice. In addition, the CYP enzymes are commonly associated with causing many clinically relevant drug-drug interactions. Of the CYP enzymes, CYP3A4 is not only the most prevalent CYP enzyme in the liver and intestine, but is responsible for metabolism and elimination of approximately 50% of marketed drugs. In addition, CYP3A4 activity can be induced (or increased) or inhibited (decreased) in response to administration of certain drugs, thereby affecting concentrations of their own or certain concomitant drugs present in the body. […]

Compound | CYP3A4 mRNA Induct Hu 10 uM POC [%]
COc1cc([C@H]2C[C@@H]2C(F)(F)F)c(F)cc1-n1c(=O)ccc2cc(S(=O)(=O)Nc3ccon3)c(F)cc21 (single isomer, unassigned) [Example 46] | 53.03
COc1cc([C@@H]2C[C@H]2C(F)(F)F)c(F)cc1-n1c(=O)ccc2cc(S(=O)(=O)Nc3cccnn3)ccc21 (atropisomer, axis not shown; (P)) [Example 16, (P)-1-(5-fluoro-2-methoxy-4-((1R,2R)-2-(trifluoromethyl)cyclopropyl)phenyl)-2-oxo-N-(pyridazin-3-yl)-1,2-dihydroquinoline-6-sulfonamide] | 27.11
COc1cc([C@H]2C[C@@H]2C2CC2)c(F)cc1-n1c(=O)ccc2cc(S(=O)(=O)Nc3ccon3)ccc21 (atropisomer, axis not shown; (P)) [Example 31, (P)-1-(4-((1R,2S)-[1,1′-bi(cyclopropan)]-2-yl)-5-fluoro-2-methoxyphenyl)-N-(isoxazol-3-yl)-2-oxo-1,2-dihydroquinoline-6-sulfonamide] | 100.7
COc1cc([C@@H]2C[C@H]2C(F)(F)F)c(F)cc1-n1c(=O)ccc2cc(S(=O)(=O)Nc3ncns3)ccc21 (atropisomer, axis not shown; (P)) [Example 34, (P)-1-(5-fluoro-2-methoxy-4-((1R,2R)-2-(trifluoromethyl)cyclopropyl)phenyl)-2-oxo-N-(1,2,4-thiadiazol-5-yl)-1,2-dihydroquinoline-6-sulfonamide] | 12.69
COc1cc(C2(C(F)(F)F)CC2)c(Cl)cc1-n1c(=O)ccc2cc(S(=O)(=O)Nc3ncccn3)ccc21 (atropisomer, axis not shown; (P)) [Example 25, (P)-1-(5-chloro-2-methoxy-4-(1-(trifluoromethyl)cyclopropyl)phenyl)-2-oxo-N-(pyrimidin-2-yl)-1,2-dihydroquinoline-6-sulfonamide] | 88.68
COc1cc([C@H]2C[C@@H]2C(F)(F)F)c(F)cc1-n1c(=O)ccc2cc(S(=O)(=O)Nc3ncccn3)ccc21 (atropisomer, axis not shown; (P)) [Example 21, (P)-1-(5-fluoro-2-methoxy-4-((1S,2S)-2-(trifluoromethyl)cyclopropyl)phenyl)-2-oxo-N-(pyrimidin-2-yl)-1,2-dihydroquinoline-6-sulfonamide] | 34.81
COc1cc([C@@H]2C[C@H]2C(F)(F)F)ccc1-n1c(=O)ccc2cc(S(=O)(=O)Nc3ccon3)ccc21 (atropisomer, axis not shown; (P)) [Example 38, (P)-N-(isoxazol-3-yl)-1-(2-methoxy-4-((1R,2R)-2-(trifluoromethyl)cyclopropyl)phenyl)-2-oxo-1,2-dihydroquinoline-6-sulfonamide] | 29.06
COc1cc([C@H]2C[C@@H]2C(F)(F)F)ccc1-n1c(=O)ccc2cc(S(=O)(=O)Nc3ccon3)ccc21 (atropisomer, axis not shown; (P)) [Example 39, (P)-N-(isoxazol-3-yl)-1-(2-methoxy-4-((1S,2S)-2-(trifluoromethyl)cyclopropyl)phenyl)-2-oxo-1,2-dihydroquinoline-6-sulfonamide] | 38.35
COc1cc([C@@H]2C[C@H]2C(F)(F)F)c(Cl)cc1-n1c(=O)ccc2cc(S(=O)(=O)Nc3ccon3)ccc21 (atropisomer, axis not shown; (P)) [Example 18, (P)-1-(5-chloro-2-methoxy-4-((1R,2R)-2-(trifluoromethyl)cyclopropyl)phenyl)-N-(isoxazol-3-yl)-2-oxo-1,2-dihydroquinoline-6-sulfonamide] | 9.92
COc1cc([C@H]2C[C@@H]2C(F)(F)F)c(Cl)cc1-n1c(=O)ccc2cc(S(=O)(=O)Nc3cccnn3)ccc21 (single isomer, unassigned) [Example 15] | 69.11
COc1cc([C@H]2C[C@@H]2C(F)(F)F)c(Cl)cc1-n1c(=O)ccc2cc(S(=O)(=O)Nc3ncccn3)ccc21 (atropisomer, axis not shown; (P)) [Example 12, (P)-1-(5-chloro-2-methoxy-4-((1S,2S)-2-(trifluoromethyl)cyclopropyl)phenyl)-2-oxo-N-(pyrimidin-2-yl)-1,2-dihydroquinoline-6-sulfonamide] | 29.85
COc1cc([C@H]2C[C@@H]2C(F)(F)F)c(F)cc1-n1c(=O)ccc2cc(S(=O)(=O)Nc3ccon3)ccc21 (atropisomer, axis not shown; (P)) [Example 4, (P)-1-(5-fluoro-2-methoxy-4-((1S,2S)-2-(trifluoromethyl)cyclopropyl)phenyl)-N-(isoxazol-3-yl)-2-oxo-1,2-dihydroquinoline-6-sulfonamide] | 15.9
COc1cc([C@H]2C[C@@H]2C(F)(F)F)c(Cl)cc1-n1c(=O)ccc2cc(S(=O)(=O)Nc3ccon3)ccc21 (atropisomer, axis not shown; (P)) [Example 19, (P)-1-(5-chloro-2-methoxy-4-((1S,2S)-2-(trifluoromethyl)cyclopropyl)phenyl)-N-(isoxazol-3-yl)-2-oxo-1,2-dihydroquinoline-6-sulfonamide] | 85.5
COc1cc(C2(C(F)(F)F)CC2)c(F)cc1-n1c(=O)ccc2cc(S(=O)(=O)Nc3ncccn3)ccc21 (atropisomer, axis not shown; (P)) [Example 23, (P)-1-(5-fluoro-2-methoxy-4-(1-(trifluoromethyl)cyclopropyl)phenyl)-2-oxo-N-(pyrimidin-2-yl)-1,2-dihydroquinoline-6-sulfonamide] | 85.95
COc1cc([C@H]2C[C@@H]2C)c(F)cc1-n1c(=O)ccc2cc(S(=O)(=O)Nc3ccon3)ccc21 (atropisomer, axis not shown; (P)) [Example 7, (P)-1-(5-fluoro-2-methoxy-4-((1S,2S)-2-methylcyclopropyl)phenyl)-N-(isoxazol-3-yl)-2-oxo-1,2-dihydroquinoline-6-sulfonamide] | 41.2
COc1cc([C@@H]2C[C@H]2C(F)(F)F)c(F)cc1-n1c(=O)ccc2cc(S(=O)(=O)Nc3ccon3)ccc21 (atropisomer, axis not shown; (P)) [Example 5, (P)-1-(5-fluoro-2-methoxy-4-((1R,2R)-2-(trifluoromethyl)cyclopropyl)phenyl)-N-(isoxazol-3-yl)-2-oxo-1,2-dihydroquinoline-6-sulfonamide] | 41.96
O=c1ccc2cc(S(=O)(=O)Nc3ccon3)ccc2n1-c1cc(F)c([C@H]2C[C@@H]2C(F)(F)F)cc1OC1CC1 (single isomer, unassigned) [Example 41] | 13.21
COc1cc([C@@H]2C[C@H]2C(F)(F)F)c(F)cc1-n1c(=O)ccc2cc(S(=O)(=O)Nc3ncccn3)ccc21 (atropisomer, axis not shown; (P)) [Example 20, (P)-1-(5-fluoro-2-methoxy-4-((1R,2R)-2-(trifluoromethyl)cyclopropyl)phenyl)-2-oxo-N-(pyrimidin-2-yl)-1,2-dihydroquinoline-6-sulfonamide] | 67.47
COc1cc([C@H]2C[C@@H]2C(F)(F)F)ccc1-n1c(=O)ccc2cc(S(=O)(=O)Nc3ccon3)c(F)cc21 (atropisomer, axis not shown; (P)) [Example 48, (P)-7-fluoro-N-(isoxazol-3-yl)-1-(2-methoxy-4-((1S,2S)-2-(trifluoromethyl)cyclopropyl)phenyl)-2-oxo-1,2-dihydroquinoline-6-sulfonamide] | 54.02
